Patent US20210369720A1, “SYNERGISTIC COMPOSITION HAVING NEUROPROTECTIVE PROPERTIES AND METHODS OF USE THEREOF” (Rutgers, The State University of New Jersey, priority 2018, published 2021)

Key:
Syn^Tg mice [1] = conditions: cited from earlier work
[2] = test system: α-Syn PFF inoculated WT mice; experiment: Rotarod, α-Syn PFF inoculated WT mice; type: in vivo; conditions: EHT 12 mg/kg/day in diet and/or caffeine 50 mg/kg/day in drinking water from weaning, 6 months post-inoculation
From the text: (§1) Thy1-α-synuclein transgenic mice (Syn^Tg) on BDF1 background overexpressing human wild-type α-synuclein under the control of the Thy1 promoter were maintained by mating heterozygous transgenic females with WT BDF1 males (Rockenstein E, et al. (2002) Differential neuropathological alterations in transgenic mice expressing alpha-synuclein from the platelet-derived growth factor and Thy-1 promoters. J Neurosci Res 68(5):568-578). BDF1 mice (mixed C57BL/6-DBA/2) were generated every three months by mating female C57BL/6 (The Jackson Laboratory) and male DBA/2 mice (Charles River). Experiments were performed with male transgenic mice and their WT littermates. […] Wild-type littermates received regular water and control chow. […] At two months of age, mice were inoculated with α-Syn PFF unilaterally in the striatum. These treatments continued throughout the experiment until animals were sacrificed. Mice were weighed and their food and water intake was quantified weekly. Animals were housed 2-5/cage in an AAALAC approved facility in a temperature- and humidity-controlled environment under a 12-hour light/dark cycle and were maintained on a diet of lab chow and water ad libitum. […]

[3] = test system: α-Syn PFF inoculated WT mice; experiment: Wire Hang test, α-Syn PFF inoculated WT mice; type: in vivo; conditions: EHT 12 mg/kg/day in diet and/or caffeine 50 mg/kg/day in drinking water from weaning, 6 months post-inoculation
From the text: as §1

PP2A = experiment: Western blot of PP2A methylation, ipsilateral striatal tissue lysates of α-Syn PFF inoculated mice; type: in vivo; conditions: EHT 12 mg/kg/day and/or caffeine 50 mg/kg/day, vs untreated α-Syn PFF inoculated mice
From the text: Thy1-α-synuclein transgenic mice (Syn^Tg) on BDF1 background overexpressing human wild-type α-synuclein under the control of the Thy1 promoter were maintained by mating heterozygous transgenic females with WT BDF1 males (Rockenstein E, et al. (2002) Differential neuropathological alterations in transgenic mice expressing alpha-synuclein from the platelet-derived growth factor and Thy-1 promoters. J Neurosci Res 68(5):568-578). BDF1 mice (mixed C57BL/6-DBA/2) were generated every three months by mating female C57BL/6 (The Jackson Laboratory) and male DBA/2 mice (Charles River). Experiments were performed with male transgenic mice and their WT littermates. […] Wild-type littermates received regular water and control chow. […] At two months of age, mice were inoculated with α-Syn PFF unilaterally in the striatum. These treatments continued throughout the experiment until animals were sacrificed. Mice were weighed and their food and water intake was quantified weekly. Animals were housed 2-5/cage in an AAALAC approved facility in a temperature- and humidity-controlled environment under a 12-hour light/dark cycle and were maintained on a diet of lab chow and water ad libitum. All animal procedures were approved by the Rutgers-Robert Wood Johnson Medical School Institutional Animal Care and Use Committee and were performed according to the National Institutes of Health Guide for the Care and Use of Laboratory Animals.
α-Syn PFF solution was sonicated at 60% amplitude 30 times (0.5 sec on, 0.5 sec off). During the stereotactic surgery, two month old WT C57BL/6 mice were anesthetized by Ketamine/xylazine (90/4.5 mg/kg, i.p., Ketaset from Zoetis, and Anased from Akorn) and positioned in a digital stereotaxic apparatus (Stoelting, Wood Dale, Ill.). […]
Human neuroblastoma SH-SY5Y cells were cultured in DMEM-F12 with 10% FBS. […] Protein concentration was determined by bicinchonic acid (BCA) method (Pierce), equal amount of protein was separated on 5-20% SDS-PAGE gel (Genescript) and transferred to nitrocellulose or PVDF membrane (Biorad). […]

GFAP = experiment: Immunohistochemical staining of GFAP in the cortex, Syn^Tg mice; type: in vivo; conditions: EHT 12 mg/kg/day and/or caffeine 50 mg/kg/day until six months of age
From the text: Neuroinflammation is one of the neuropathological features of PD and models of α-synucleinopathy including Syn^Tg mice (Lee K W, et al. (2011) Enhanced phosphatase activity attenuates alpha-synucleinopathy in a mouse model. J Neurosci 31(19):6963-6971).
Thy1-α-synuclein transgenic mice (Syn^Tg) on BDF1 background overexpressing human wild-type α-synuclein under the control of the Thy1 promoter were maintained by mating heterozygous transgenic females with WT BDF1 males (Rockenstein E, et al. (2002) Differential neuropathological alterations in transgenic mice expressing alpha-synuclein from the platelet-derived growth factor and Thy-1 promoters. J Neurosci Res 68(5):568-578). BDF1 mice (mixed C57BL/6-DBA/2) were generated every three months by mating female C57BL/6 (The Jackson Laboratory) and male DBA/2 mice (Charles River). Experiments were performed with male transgenic mice and their WT littermates. […] Wild-type littermates received regular water and control chow. […] Mice were weighed and their food and water intake was quantified weekly. […]
Vectastain elite ABC kit (Vector Laboratories, Burlingame, Calif.) and 3,3′-diaminobenzidine (Sigma-Aldrich) were used for amplifying and color development. […] For other stains, the whole microscopic field was analyzed. For p-α-Syn stains in the cortex, four matching regions in each of two sections per animal were counted.

Syn^Tg mice [4] = experiment: Nesting behavior, Syn^Tg mice; type: in vivo; conditions: EHT 12 mg/kg/day in chow and/or caffeine 50 mg/kg/day in drinking water from weaning until six months of age, vs untreated Syn^Tg mice
From the text: as §1

[5] = test system: TH positive dopaminergic neurons of the substantia nigra; experiment: Nigral TH positive neuron count, α-Syn PFF inoculated WT mice; type: in vivo; conditions: each compound individually, PFF alone reduced neurons by 51% vs PBS
From the text: as §1

p-α-Syn = experiment: Western blot of p-α-Syn in SH-SY5Y cells challenged with α-Syn PFF; type: cell-based, Human; conditions: SH-SY5Y cells challenged with mouse α-Syn PFF for 7 days; caffeine and/or EHT added to the medium
Protocol: Human neuroblastoma SH-SY5Y cells were cultured in DMEM-F12 with 10% FBS. At 50% confluency, cells were treated with 1 gg/ml mouse α-Syn PFF in DMEM-F12 with 1% FBS for 7 days. Medium was refreshed every 3 days. Cell harvesting was done with 2% SDS in PBS supplemented with protease inhibitor (Millipore) and phosphatase inhibitor (Sigma-Aldrich). Lysates were sonicated and boiled at 95° C. for 5 minutes. Protein concentration was determined by bicinchonic acid (BCA) method (Pierce), equal amount of protein was separated on 5-20% SDS-PAGE gel (Genescript) and transferred to nitrocellulose or PVDF membrane (Biorad). Following transfer, membranes were blocked for 1 hour at room temperature in blocking buffer (Li-Cor) or 5% (w/v) BSA/TBS-Tween 0.1% (v/v). Primary antibodies were diluted in blocking buffer or 5% (w/v) BSA/TBS-Tween 0.1% (v/v) and incubated with the membranes at 4° C. overnight. Membranes were washed three times in TBS-Tween and incubated in diluted IRDye 800CW or HRP conjugated secondary antibody for 1 hour at room temperature. Following washing, membranes were scanned by Li-Cor Odyssey CLx infrared imaging system or treated with the Western Lightning ECL-plus reagents (PerkinElmer) and exposed to autoradiography films (LabScientific).

## CCCCCCCCCCCCCCCCCCCC(=O)NCCc1c[nH]c2ccc(O)cc12 [EHT, eicosanoyl-5-hydroxytryptamide]
Syn^Tg mice [1]; EHT 12 mg/kg/day in chow, nine months of treatment
  molecular, histochemical, and behavioral benefits: partial amelioration
Syn^Tg mice [1]; EHT alone for nine months, dose dependent, more evident at 120 mg/kg/day
  PP2A methylation in brain tissue lysates: modulated PP2A methylation
Syn^Tg mice [1]; EHT alone for nine months, more evident at 120 mg/kg/day
  accumulation of p-α-Syn: reduced the accumulation of p-α-Syn
[2]
  performance on the rotarod: improved performance
[3]
  performance on the wire hang test: improved performance
PP2A
  methyl- to demethyl-PP2A ratio: insignificant increase
  methyl-PP2A levels: insignificant increase
GFAP
  astrocytic proliferation (GFAP) in the cortex: partially but insignificantly attenuated
Syn^Tg mice [4]
  nesting behavior: did not improve performance
[5]
  prevention of the reduction of TH positive dopaminergic neurons of the substantia nigra: did not prevent this reduction
p-α-Syn
  p-α-Syn levels: reduced it partially
